Tested on: CAFs
Test: Internalization studies in CAFs
Assay type: cell-based, human
Details: 37 °C
Description: For saturation studies, CAFs were incubated with increasing concentrations of the radiotracers (0.1–10 nM). For internalization studies, approximately 2.5 pmol of the radiotracers were added to CAFs followed by incubation for 15, 30, 60, 90, 120, 180 and 240 min for the ^68Ga-labeled or 30, 60, 120, 240 and 360 min for the ^177Lu-labeled radiotracers at 37 °C, 5% CO2. For the externalization studies, approximately 2.5 pmol of the ^177Lu-labeled radiotracers were added to CAFs followed by incubation for 2 h at 37 °C, 5% CO2. Afterward, the amount of the externalized activity from the CAFs was determined at 0, 10, 20, 30, 60, 120, 240, and 1440 min (Supplemental Data).
Saturation Binding Studies […]
for 0.5, 1, 2, 4 and 6 h at 37 °C, 5% CO2 for the 177Lu-labeled tracers. […] The radioactivity of the culture medium, the receptor bound, and the internal-ized fractions were measured in a γ-counter. […]
The radioactivity of the culture medium, the receptor bound , the internalized and the externalized fractions were measured in a γ -counter. The externalized fraction of radioactivity was ex-pressed as the percentage of the total internalized amount. […]

SMILES | Total cell associated uptake (% of total applied radioactivity) (6 h) [%] | Total cell associated uptake (% of total applied radioactivity) (4 h) [%]
N#C[C@@H]1CC(F)(F)CN1C(=O)CNC(=O)c1ccnc2ccc(OCCCCNc3c(NCCNC(=O)CN4CCN(CC(=O)[O-])CCN(CC(=O)[O-])CCN(CC(=O)[O-])CC4)c(=O)c3=O)cc12.[177Lu+3] [[^177Lu]Lu-DOTA.SA.FAPi] | 21.1 ± 1.1 | –
N#C[C@@H]1CC(F)(F)CN1C(=O)CNC(=O)c1ccnc2ccc(OCCCCNc3c(NCCNC(=O)CN4CCN(CC(=O)[O-])CCN(CC(=O)[O-])CCN(CC(=O)[O-])CC4)c(=O)c3=O)cc12.[68Ga+3] [[^68Ga]Ga-DOTA.SA.FAPi] | – | 21.9 ± 1.2

Reference: PMC11243320, “Tailoring Fibroblast-Activation Protein Targeting for Theranostics: A Comparative Preclinical Evaluation of the ^68Ga- and ^177Lu-Labeled Monomeric and Dimeric Fibroblast-Activation Protein Inhibitors DOTA.SA.FAPi and DOTAGA.(SA.FAPi)2” (Molecules, 2024)
